Laboratory results from PubChem BioAssay AID1250 (SRMLSC, 2008).
Activity calls are given as the source filed them.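 The calls were made as follows: active = inhibition of at least 30% at one or more tested concentrations; inactive = inhibition below 30% at every dose.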

assay: inhibitors of Bluetongue virus cytopathic effect, confirmation, arbovirus, BSR cells (AID 1250); settings: BSR cells, Bluetongue virus CPE, ATP luminescence, 72 h; at 5 µM (top of the series)

Structure (SMILES) | CPE inhibition
O=C(Nc1cccc(Cl)c1)Nc1ccnc(-c2cccnc2)n1 | 23.9% (inactive)

same assay, conditions: BSR cells, Bluetongue virus CPE, ATP luminescence, 72 h; at 20 µM (top of the series)

Structure (SMILES) | CPE inhibition
CCCc1c(OCCCCc2nn[nH]n2)ccc(C(C)=O)c1O | 12.8% (inactive)
O=C(Nc1scc(-c2ccccc2)c1C(=O)O)c1ccco1 | 10.9% (inactive)
CC(C)(O[C@@H]1O[C@H](CO)[C@@H](O)[C@H](O)[C@H]1O)[C@H]1Cc2cc3ccc(=O)oc3cc2O1 | 0.22% (inactive)
Cc1cccc(CSc2nnc(NC(=O)CSc3nnc(C)s3)s2)c1 | 17.3% (inactive)
C=CCSc1nnc(NC(=O)CSc2nc3ccccc3o2)s1 | 21.8% (inactive)
Nc1[nH]nc2nc(NCc3ccccc3)c3c(c12)CCN(Cc1ccccc1)C3 | 10.8% (inactive)
CC(C)CSC1=NSC2=NC(=O)/C(=C\c3coc4ccccc4c3=O)C(=N)N12 | 14% (inactive)
Cc1ccccc1N=C1NC(=O)/C(=C/c2cccn2-c2cccc(C(=O)O)c2)S1 | 21.3% (inactive)
CC(=O)NCC1=C(NC(C)=O)C2CC1C(C)(C)C2C (stereo not given) | 2.41% (inactive)
CSc1nsc2nc(=O)c(/C=C3\C=Nc4ccccc43)c(N)n12 | 20.5% (inactive)
COc1ccc(C2=Nn3c(nnc3-c3ccncc3)SC2)cc1OC | 20.1% (inactive)
COc1ccc2c(c1)c1nc3ccccc3nc1n2Cc1ccc(OC)c(OC)c1 | 15.8% (inactive)
COc1cc(C(=O)Nc2sc(C)c(C)c2C(=O)O)cc(OC)c1OC | 26% (inactive)
C/C(=N\Nc1nc2ccccc2[nH]1)c1ccc2c(c1)OCO2 | 8.76% (inactive)
C/C(=N\NC(=O)COc1ccc([N+](=O)[O-])cc1)C(C)(C)C | 4.19% (inactive)
CCCS(=O)(=O)n1nc(-c2ccc(OC)cc2OC)cc1N | -1.58% (inactive)
N#Cc1c(SCc2cccc(Cl)c2)sc(C(=O)c2ccccc2)c1N | 25.2% (inactive)
CC(C)S(=O)(=O)c1nsc2nc(=O)c(/C=C3\C=Nc4ccccc43)c(N)n12 | 22% (inactive)
CCCCn1c(SCc2cccc([N+](=O)[O-])c2)nc2ccsc2c1=O | 3.1% (inactive)
COc1ccc(CN(C(=O)c2oc3ccccc3c2C)C2CCS(=O)(=O)C2)cc1OC (stereo not given) | 18.3% (inactive)
COc1ccc(/C=C/c2nc(-c3ccccc3O)n[nH]2)cc1OC | 14% (inactive)
COc1ccc(-c2noc(CSc3nc(-c4ccccc4)cc(=O)[nH]3)n2)cc1OC | 26.6% (inactive)
Cc1cccc2c1-c1sc(C(=O)Nc3nccs3)cc1CO2 | 27% (inactive)
COc1ccc2nc(N3C(=O)CC(Cc4cc(C)cc(C)c4)C3=O)sc2c1 (stereo not given) | 13.6% (inactive)

Structure (SMILES) | CPE inhibition
Cc1ccc(C)c(Cn2nnc3c(=O)[nH]c(C(=O)Nc4ccc(F)cc4)nc32)c1 | 11.9% (inactive)
C#CCSc1ncc(S(=O)(=O)c2ccccc2)c(=O)[nH]1 | 1.65% (inactive)
Cc1nn(CC(O)Cn2c3c(c4ccccc42)CCN(C)C3=O)c(C)c1Br (stereo not given) | 22.4% (inactive)
CCc1cc2c(=O)c(-c3cscn3)coc2c(CN(C)C)c1O | 5.92% (inactive)
CC(C)c1cc(C(F)(F)F)n2nc(C(=O)Nc3ccc4c(c3)OCO4)cc2n1 | 9.64% (inactive)
COC(=O)c1c(SCc2ccc(C#N)cc2)nc(=O)[nH]c1C | 4.66% (inactive)
Cc1ccc(NC(=O)COc2ccc(Br)cc2CO)cc1 | 10.5% (inactive)
Cc1ccc(-c2cc(-c3ccccc3)no2)c(O)c1 | 15.6% (inactive)
N#Cc1c(C(F)(F)F)cc(-c2ccc(Cl)cc2)[nH]c1=O | 25.9% (inactive)
CC1CC(C)CN(c2nc(NCc3ccco3)nc(N)c2[N+](=O)[O-])C1 (stereo not given) | 25.5% (inactive)
COc1cccc(C2CC(c3ccc(Cl)cc3Cl)Nc3nc(N)nn32)c1 (stereo not given) | 2.82% (inactive)
O=C1CC(c2ccc(Br)cc2)NC(c2ccc(Br)cc2)C1c1ccccc1 (stereo not given) | 7.99% (inactive)
CCOC(=O)CC1=NS(=O)(=O)c2ccccc2N1 | 2.01% (inactive)
CN1CCN(C(=S)NC(=O)c2ccc(Cl)cc2)CC1 | 29.2% (inactive)
O=C(C1CC1)N1CCN=C1SCc1ccc(Cl)cc1 | 0% (inactive)
Cc1ccc2c(c1)c(Sc1ccccc1)c(CC(=O)O)n2C | -0.49% (inactive)
COCCn1c(C)cc(C(=O)CSc2cc(C)c3ccccc3n2)c1C | 7.16% (inactive)
CCCCn1c(SCC(=O)N2CCN(c3ccccc3)CC2)nc2ccsc2c1=O | 6.77% (inactive)
COc1ccc(C)cc1NC(=O)C1COc2ccccc2O1 (stereo not given) | 11.1% (inactive)
Cc1ccc(S(=O)(=O)N2CCN(Cc3cc(C(C)C)ccc3O)CC2)cc1 | 15.9% (inactive)
Cn1cc([N+](=O)[O-])c(C(=O)NCc2cc3cc(Cl)ccc3[nH]2)n1 | 9.85% (inactive)
O=C(NCCN1C(=O)S/C(=C/c2cccnc2)C1=O)C1CC(=O)N(Cc2ccccc2)C1 (stereo not given) | 3.69% (inactive)
Oc1ccccc1CN1CCCN(Cc2ccccc2O)C1 | 2.17% (inactive)
O=C(c1ccco1)N1CCN(c2nc(-c3ccc(F)cc3)cs2)CC1 | 17.1% (inactive)

Structure (SMILES) | CPE inhibition
Cc1cccc(S(=O)(=O)Nc2nc3ccccc3nc2NCc2ccco2)c1 | 12.1% (inactive)
CN(C(=O)c1coc(=O)c2ccccc12)c1ccc(Br)cc1 | 18.4% (inactive)
CSc1nc(-c2ccc(Cl)cc2Cl)[nH]c(=O)c1C#N | 24.3% (inactive)
Cc1ccccc1OCCSCc1nc2ccccc2[nH]1 | 24.9% (inactive)
C/C(=N\NC(=O)c1ccccc1)c1nc2ccccc2n1C | -15.5% (inactive)
c1coc(CNc2c3c(nc4ncnn24)CCCC3)c1 | 13.4% (inactive)
Cc1cccc(Sc2nc(-c3ccccc3)ncc2C(=O)O)c1 | 7.57% (inactive)
CCCCOc1ccc(C(O)C(CN2CCCCC2)c2ccccc2)cc1 (stereo not given) | 12.5% (inactive)
Cc1ccc(NC(=O)/C(=C/C=C/c2ccccc2)NC(=O)c2ccccc2)cc1 | 19.4% (inactive)
CN(C)/N=C/c1ccc(P(c2ccc(/C=N/N(C)C)o2)c2ccc(/C=N/N(C)C)o2)o1 | 10.4% (inactive)
N#CCSc1nc(N)c(C#N)c(C2CCCCC2)c1C#N | 6.59% (inactive)
N=C1/C(=C/c2cccs2)C(=O)N=C2SN=C(SCc3ccccc3)N12 | 29.3% (inactive)
O=C(CSc1ncn[nH]1)Nc1nc(-c2ccccc2)ns1 | 6.55% (inactive)
N#Cc1c(N2C(=O)Nc3ccccc3N2O)sc2c1CCCCCC2 | 19.9% (inactive)
Cc1cccc(N2CCN(C(=O)C3COc4ccccc4O3)CC2)c1C (stereo not given) | 19.7% (inactive)
O=C(N/N=C/c1c(O)n(-c2ccccc2Cl)c(=O)c2ccccc12)c1cccnc1 | 26% (inactive)
O=C(Nc1nnc(SCc2ccc(F)cc2)s1)c1ccc2c(c1)C(=O)N(c1ccccc1Cl)C2=O | 20.2% (inactive)
CCCCCCc1cc2cc(C(=O)Nc3ccc(OC)cc3)c(=O)oc2cc1O | -3.41% (inactive)
O=C(O)c1ccc(COc2ccc3ccccc3c2/C=C2/NC(=O)N(Cc3ccc(F)cc3)C2=O)cc1 | 7.43% (inactive)
O=C(Nc1nc(-c2ccccc2)cs1)c1ccc(=O)[nH]c1 | 12% (inactive)
COc1ccc2ccc(O)c(CN3CC=C(c4ccccc4)CC3)c2c1 | 14.6% (inactive)
O=Cc1cn(-c2ccccc2)nc1-c1cc2cc(O)ccc2oc1=O | 9.88% (inactive)
COc1cc(C2N=C(c3ccccc3)NO2)cc(Br)c1O (stereo not given) | 18.4% (inactive)
COc1cccc(C(=O)Nc2cccc(C(=O)NC3=NN(c4c(Cl)cc(Cl)cc4Cl)C(=O)C3)c2)c1 | 18.8% (inactive)

Structure (SMILES) | CPE inhibition
Cc1ccc(Nc2nc(N)c([N+](=O)[O-])c(N3CCOCC3)n2)cc1C | 11.3% (inactive)
O=C1c2[nH]nc(-c3ccccc3O)c2C(c2ccc(F)cc2)N1CC1CCCO1 (stereo not given) | 10.9% (inactive)
CC1CCN(C2=NC(=O)/C(=C/c3cn[nH]c3-c3ccccc3)S2)CC1 | -2.7% (inactive)
C#CCNC(=O)C1=C[C@H](c2cn(C(C)=O)c3ccccc23)C[C@H](OCc2ccc(CO)cc2)O1 | -0.3% (inactive)
COc1ccc(OC)c(/C=N\NC(=O)CC(=O)NCCc2ccccc2)c1 | -1.6% (inactive)
CCN(CC)C(=O)CSC1=N/C(=C/c2ccco2)C(=O)N1c1ccc(OC)c(Cl)c1 | 13.3% (inactive)
CCSc1nnc(NC(=O)CSc2nnc(Cc3cccn3C)n2-c2ccc(F)cc2)s1 | 13.9% (inactive)
O=C(COc1ccc(Cl)cc1)Nc1ncc([N+](=O)[O-])s1 | 25.3% (inactive)
Oc1ccccc1CNCCCNCc1ccccc1O | 20.8% (inactive)
O=C(O)c1ccc(-c2nc(-c3ccc(Cl)cc3)cs2)cc1 | 16.2% (inactive)
CSc1ccccc1NC(=O)CO/N=C(\C)c1cc2ccccc2o1 | 12.9% (inactive)
COc1ccc(OC)c(NC(=O)c2cc(-c3ccc(C)cc3O)n[nH]2)c1 | 9.4% (inactive)
CC(C)(C)c1ccc(C(=O)NC(=S)NCC2CCCO2)cc1 (stereo not given) | 3.96% (inactive)
Cc1nc2c(C(=O)NCCC(C)C)c[nH]n2c(=O)c1Cl | 9.83% (inactive)
Cc1ccc2nc(NC(=O)C3CCN(S(=O)(=O)c4cnc[nH]4)CC3)sc2c1 | 14% (inactive)
c1ccc(CSc2ccc(-c3cccnc3)nn2)nc1 | 0.68% (inactive)
O=C(Nc1sc2c(c1C(=O)O)CCC2)c1cccs1 | 14.7% (inactive)
Cc1nn(CC(=O)OCCOc2ccc(Br)cc2)c(C)c1[N+](=O)[O-] | 2.41% (inactive)
Cc1ccc(-n2nc(C)c(NC(=O)CCl)c2C)cc1 | 13.3% (inactive)
N#Cc1c(NC(=O)CSc2nnc(-c3ccccc3)o2)sc2c1CCCC2 | -0.12% (inactive)
CC1=C(C#N)C(=O)NC(=O)/C1=C\c1ccc(-c2cc(C)c(C)cc2[N+](=O)[O-])o1 | 4.65% (inactive)
Cc1ccc(C(CC(=O)O)Nc2nc(N3CCCCC3)nc(N3CCCCC3)n2)cc1 (stereo not given) | 9.28% (inactive)
